Target: T1, GSK3β (Homo sapiens, UniProt P49841)
T1 construct: gene GSK3B
Assay: Kinase-Glo Plus luminescent enzymatic assay, […] ATP
Assay type: biochemical

T1 sequence (P49841 whole entry): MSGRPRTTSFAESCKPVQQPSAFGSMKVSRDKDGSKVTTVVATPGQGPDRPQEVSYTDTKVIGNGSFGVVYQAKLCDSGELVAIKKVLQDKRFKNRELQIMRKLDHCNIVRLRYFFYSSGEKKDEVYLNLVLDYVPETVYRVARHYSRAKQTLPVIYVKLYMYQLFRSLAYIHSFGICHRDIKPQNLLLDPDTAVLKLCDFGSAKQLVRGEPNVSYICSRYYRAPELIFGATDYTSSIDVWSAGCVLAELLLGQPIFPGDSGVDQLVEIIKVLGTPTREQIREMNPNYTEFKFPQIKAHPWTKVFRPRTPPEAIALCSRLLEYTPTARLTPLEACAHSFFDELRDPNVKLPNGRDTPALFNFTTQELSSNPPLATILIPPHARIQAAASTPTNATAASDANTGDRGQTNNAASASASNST

With kushenol F [MOL006617] the IC50 was 4.96 ± 1.29 µM.

Source: publication PMC13358776, “Discovery of Two GSK3β Inhibitors from Sophora flavescens Ait. using Structure-based Virtual Screening and Bioactivity Evaluation” (Current Computer-Aided Drug Design, 2024)
